Source: US10449175B2, “Rinse-off chemical mousse containing benzoyl peroxide” (GALDERMA RESEARCH & DEVELOPMENT, priority 2014, dated 2019)

Assay: Stability over time of foaming surfactants in formulation intermediate B with high sodium bicarbonate
Type: physicochemical
Conditions: incorporated in formulation intermediate B, high concentration of sodium bicarbonate
Description: The applicant company has known how to select a foaming surfactant which is stable over time in the presence of a high concentration of sodium bicarbonate. The following surfactants were tested in the mixture: Sodium C14-C16 Olefin Sulfonate sold by Clariant under the name Hostapur® OSB or else Hostapur® OS Liq but also Nansa® LSS 495-H sold by Huntsman, Rodacal LSS 80 RPB from Rhodia, BIO-Terge® AS-90 beads from Stepan, Sodium Cocoyl Glycinate sold by Clariant under the name Hostapon® SG, Sodium Cocoyl Isethionate sold by Clariant under the name Hostapon® SCI85 G, Sodium Lauroyl Methyl Isethionate sold by Innospec under the name Iselux® LG, Decyl Glucoside sold by Cognis under the name Plantacare® 2000 Up, Zinc Coceth Sulfate sold by Zschimmer & Schwarz under the name Zetesol® Zn, Glyceryl Monolaurate sold by Rossow under the name POEM® DL 100, and Disodium PEG-5 Laurylcitrate Sulfosuccinate sold by Evonik under the name Rewopol SB C55®.

For Sodium C14-16 Olefin Sulfonate, the “retention of foaming and organoleptic properties (color, odor)” value was “retained its foaming properties and its organoleptic properties”.
